A word on the IC50: it is the concentration that gives 50% inhibition.

Values joined by “and” are separate entries in the source; they are usually repeats but may differ in a detail not shown here. Equal values may be shown once.

For one experiment, the target named is T1, NPY2 receptors (Homo sapiens, UniProt P49146).
T1 construct: Cell Membranes from KAN-TS cells having NPY2 receptors; endogenous in cells; host or cells: KAN-TS cells (membranes)
T1 sequence (P49146 1-381): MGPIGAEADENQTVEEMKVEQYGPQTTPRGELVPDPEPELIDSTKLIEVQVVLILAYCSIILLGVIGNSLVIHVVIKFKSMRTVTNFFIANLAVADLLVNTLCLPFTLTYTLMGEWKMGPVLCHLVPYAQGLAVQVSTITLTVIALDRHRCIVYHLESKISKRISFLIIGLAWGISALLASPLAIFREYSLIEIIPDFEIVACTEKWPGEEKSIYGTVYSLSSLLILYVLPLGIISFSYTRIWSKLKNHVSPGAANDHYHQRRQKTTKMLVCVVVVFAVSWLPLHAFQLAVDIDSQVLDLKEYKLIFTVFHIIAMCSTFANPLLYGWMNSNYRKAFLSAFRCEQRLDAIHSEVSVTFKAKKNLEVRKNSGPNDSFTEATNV
Description: Neuropeptide Y receptor binding assay (125I-PYY, KAN-TS cell membranes). Particulars: 10 μM compound; read-out: NPY-2@10, % Inh. Put shortly: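 Membranes from KAN-TS cells competed with 125I-PYY in binding buffer containing BSA, test compound at 10 μM final, 1 hr at room temperature. Nonspecific binding defined with 1 μM PYY final. Tubes centrifuged, washed with PBS and bound radioactivity gamma-counted.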

The target of a further experiment is T2, human V1b receptor (Homo sapiens, UniProt P47901).
T2 sequence (P47901 1-424): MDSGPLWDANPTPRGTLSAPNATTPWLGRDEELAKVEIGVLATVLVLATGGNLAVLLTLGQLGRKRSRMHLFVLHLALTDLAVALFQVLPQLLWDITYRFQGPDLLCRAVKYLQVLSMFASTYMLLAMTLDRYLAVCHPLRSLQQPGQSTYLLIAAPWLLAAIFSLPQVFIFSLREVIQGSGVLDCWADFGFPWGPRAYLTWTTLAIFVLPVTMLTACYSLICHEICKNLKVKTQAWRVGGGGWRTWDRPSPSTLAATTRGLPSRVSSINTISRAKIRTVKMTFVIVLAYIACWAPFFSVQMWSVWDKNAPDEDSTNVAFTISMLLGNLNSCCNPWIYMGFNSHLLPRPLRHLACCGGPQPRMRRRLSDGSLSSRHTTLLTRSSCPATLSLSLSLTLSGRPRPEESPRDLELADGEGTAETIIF
The experiment in a line: V1b binding assay (3H-AVP displacement, HEK-293 membranes). The arrangement: expressed in transfected cells; host or cells: HEK-293 (membranes). Particulars: 1.0 μM compound; read-out: V1b@1.0, % Inh. An outline of the steps:
(§1)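 Membranes from transfected HEK-293 cells incubated 1 h at room temperature with ³H-AVP (10,000 cpm) in 50 mM Tris, 5 mM MgCl2, 0.1% BSA, pH 7.5 plus protease inhibitors. Non-specific binding set with 1.25 μM AVP. Bound tracer collected on PEI-soaked GF/C filters and counted by scintillation.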

The target in a further experiment is human V1a receptor (Homo sapiens, UniProt P37288). The experiment in a line: V1a binding assay (3H-AVP displacement, HEK-293 membranes). The arrangement: expressed in transfected cells; host or cells: HEK-293 (membranes). Particulars: for inhibition at 1 µM: 1.0 μM compound, read-out: V1a@1.0, % Inh. Put shortly: as §1
Sequence of human V1a receptor (P37288 whole entry): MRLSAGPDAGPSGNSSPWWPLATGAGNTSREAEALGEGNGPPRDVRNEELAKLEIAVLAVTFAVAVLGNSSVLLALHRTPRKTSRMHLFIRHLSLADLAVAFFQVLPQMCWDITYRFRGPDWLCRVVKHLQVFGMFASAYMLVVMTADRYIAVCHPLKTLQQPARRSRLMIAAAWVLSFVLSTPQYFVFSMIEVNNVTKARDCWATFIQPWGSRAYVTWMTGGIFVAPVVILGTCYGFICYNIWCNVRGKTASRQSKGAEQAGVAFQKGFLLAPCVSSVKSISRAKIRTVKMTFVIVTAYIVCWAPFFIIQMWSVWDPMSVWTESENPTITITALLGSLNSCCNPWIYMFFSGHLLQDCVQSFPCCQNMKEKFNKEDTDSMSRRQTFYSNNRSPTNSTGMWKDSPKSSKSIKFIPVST
In a further experiment the target is human V2 receptor (Homo sapiens, UniProt P30518). Description: V2 binding assay (3H-AVP displacement, HEK-293 membranes). The arrangement: expressed in transfected cells; host or cells: HEK-293 (membranes). Particulars: 1.0 μM compound; read-out: V2@1.0, % Inh. Put shortly:
as §1

Sequence of human V2 receptor (P30518 whole entry): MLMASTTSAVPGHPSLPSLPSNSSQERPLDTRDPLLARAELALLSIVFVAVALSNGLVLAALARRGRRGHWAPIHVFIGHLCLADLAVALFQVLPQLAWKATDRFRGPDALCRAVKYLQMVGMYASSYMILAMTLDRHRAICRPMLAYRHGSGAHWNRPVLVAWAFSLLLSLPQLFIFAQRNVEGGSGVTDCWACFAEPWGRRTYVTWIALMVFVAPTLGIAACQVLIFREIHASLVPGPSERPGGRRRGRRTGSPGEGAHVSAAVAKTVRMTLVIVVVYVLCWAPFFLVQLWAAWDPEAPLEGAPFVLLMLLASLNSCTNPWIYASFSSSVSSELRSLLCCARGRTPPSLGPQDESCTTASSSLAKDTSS

Turning to `O=c1n(CCCCN2CCCCC2)c2ccccc2n1C1CCN(C(=S)NC(c2ccccc2)c2ccccc2)CC1` [Compound 107], on NPY2 receptors, the inhibition at 10 µM amounted to 95%. The inhibition at 1 µM worked out at 45% on human V1b receptor and 12% at human V2 receptor. The compound also gave a 50% inhibitory concentration (IC50) on human V1a receptor of 22 nM.
For `O=c1n(CCCO)c2ccccc2n1C1CCN(C(=S)NC(c2ccccc2)c2ccccc2)CC1` [Compound 108, 1-[(N1-piperidinocarbothioylbiphenylmethylamino)-4-yl]-3-(3-hydroxypropyl)-1,3-dihydrobenzimidazol-2-one] the same measures were 41%, 37%, 16% and 579 nM.
In the case of `Cc1ccccc1NC(=S)N1CCC(n2c(=O)n(CCCN3CCCCC3)c3ccccc32)CC1` [Compound 109, 1-[(N1-piperidinocarbothioyl-2-methylphenylamino)-4-yl]-3-(3-N-piperidinylpropyl)-1,3-dihydrobenzimidazol-2-one], the inhibition at 10 µM on NPY2 receptors was found to be 58%. For the same compound, the inhibition at 1 µM is 14% at human V1b receptor and 0% on human V2 receptor. Also, the IC50 on human V1a receptor stood at 56 nM.
For `Cc1ccccc1NC(=O)N1CCC(n2c(=O)n(CCCN3CCCCC3)c3ccccc32)CC1` [Compound 110, 1-[(N1-piperidinocarbonyl-2-methylphenylamino)-4-yl]-3-(3-N-piperidinylpropyl)-1,3-dihydrobenzimidazol-2-one], the inhibition at 10 µM on NPY2 receptors is 0%. The results for the inhibition at 1 µM at human V1b receptor, on human V1a receptor and on human V2 receptor were 19%, 41% and 2%, respectively.
Consider `COc1ccccc1CNC(=S)N1CCC(n2c(=O)n(CCCN3CCCCC3)c3ccccc32)CC1` [Compound 111, 1-[(N1-piperidinocarbothioyl-2-methoxybenzylamino)-4-yl]-3-(3-N-piperidinylpropyl)-1,3-dihydrobenzimidazol-2-one], for which the inhibition at 10 µM at NPY2 receptors was determined as 31%. Besides, the inhibition at 1 µM on human V1b receptor came to 30%; on human V2 receptor, 0%. Further, the IC50 on human V1a receptor was 109 nM and 56 nM.
As to `O=c1n(CCCN2CCCCC2)c2ccccc2n1C1CCN(C(=S)NCc2cccc3ccccc23)CC1` [Compound 112, 1-[(N1-piperidinocarbothioyl-1-naphthalmethylamino)-4-yl]-3-(3-N-piperidinylpropyl)-1,3-dihydrobenzimidazol-2-one], at NPY2 receptors, the inhibition at 10 µM was determined as 55%. In addition, the inhibition at 1 µM was 32% at human V1b receptor and 0% on human V2 receptor. The compound also displayed an IC50 at human V1a receptor of 139 nM.
For the compound `CC1CCN(CCCn2c(=O)n(C3CCN(C(=S)NC(c4ccccc4)c4ccccc4)CC3)c3ccccc32)CC1` [Compound 113, 1-[(N1-piperidinocarbothioylbiphenylmethylamino)-4-yl]-3-(4-methylpiperidin-1-yl-propyl)-1,3-dihydrobenzimidazol-2-one], the inhibition at 10 µM on NPY2 receptors turned out to be 89%. The inhibition at 1 µM at human V1b receptor was found to be 47%; on human V1a receptor it was 70%; on human V2 receptor, 7%. This compound yielded an IC50 at human V1a receptor of 23 nM.
Consider `O=C(Nc1ccccc1F)N1CCC(n2c(=O)n(CCCN3CCCCC3)c3ccccc32)CC1` [Compound 114, 1-[(N1-piperidinocarbonyl-2-fluorophenylamino)-4-yl]-3-(3-N-piperidinylpropyl)-1,3-dihydrobenzimidazol-2-one], for which, on NPY2 receptors, the inhibition at 10 µM came to 17%. Also, the inhibition at 1 µM at human V1b receptor turned out to be 4%; at human V1a receptor it was 1%; at human V2 receptor, 2%.
For `O=c1n(CCCN2CCCCC2)c2ccccc2n1C1CCN(C(=S)Nc2ccccc2F)CC1` [Compound 115, 1-[(N1-piperidinocarbonthioyl-2-fluorophenylamino)-4-yl]-3-(3-N-piperidinylpropyl)-1,3-dihydrobenzimidazol-2-one] the same measures were 26%, 20%, 13% and 11%.
